From patent publication US4994376A, “Detection of bacteroides gingivalis” (priority 1987, dated 1991)
Like-named read-outs stand apart in the source and are kept apart here.

Legend:
Assay type in all cases: biochemical
B. loescheii = settings: β-naphthylamine liberated after 60 minutes, 37° C.
In short: (§1)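 N-CBz-glycyl-glycyl-L-arginine-β-naphthylamide was hydrolysed for 1 hour at 37 °C, then coupled with Fast Garnet GBC (0.5 mg/ml) in 1M acetic acid buffer, pH 4.2, containing 10% Tween 20. After 15 minutes at room temperature, absorbance was read at 525 nm against a no-enzyme blank; activity is given as nmol β-naphthylamine released per 60 min.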

B. mel. ss. intermedius = settings: β-naphthylamine liberated after 60 minutes, 37° C.
In short: as §1

C. ochracea = settings: strain ATCC 27872; β-naphthylamine liberated after 60 minutes, 37° C.
In short: as §1

B. levii = settings: β-naphthylamine liberated after 60 minutes, 37° C.
In short: as §1

Bacteroides gingivalis = settings: β-naphthylamine liberated after 60 minutes, 37° C.
In short: as §1

[1] = system: Capnocytophaga gingivalis; settings: strain ATCC 33624; β-naphthylamine liberated after 60 minutes, 37° C.
In short: as §1

B. asaccharolyticus = settings: β-naphthylamine liberated after 60 minutes, 37° C.
In short: as §1

V. parvula = settings: strain ATCC 10790; β-naphthylamine liberated after 60 minutes, 37° C.
In short: (§2)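 Aminopeptidase values express the nanomoles of β-naphthylamine freed from N-CBz-glycyl-glycyl-L-arginine-β-naphthylamide during a 60-minute, 37° C incubation. The liberated amine was coupled with stabilized diazonium salt Fast Garnet GBC and measured at 525 nm against an enzyme-free blank.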

Eikenella corrodens = settings: strain BP1-6; β-naphthylamine liberated after 60 minutes, 37° C.
In short: as §2

Campylobacter sputorum = settings: strain Ba1-21; β-naphthylamine liberated after 60 minutes, 37° C.
In short: as §2

Actinomyces israeli = settings: β-naphthylamine liberated after 60 minutes, 37° C.
In short: as §2

[2] = system: Actinobacillus actinomycetemcomitans; settings: β-naphthylamine liberated after 60 minutes, 37° C.
In short: as §2

Veillonella sp. = settings: strain SE1M2; β-naphthylamine liberated after 60 minutes, 37° C.
In short: as §2

A. seminis = settings: strain ATCC 15768; β-naphthylamine liberated after 60 minutes, 37° C.
In short: as §2

"Anaerobic vibrio" = settings: strain SN2T2; β-naphthylamine liberated after 60 minutes, 37° C.
In short: as §2

Streptococcus mitis = settings: β-naphthylamine liberated after 60 minutes, 37° C.
In short: as §2

A. viscosus = settings: β-naphthylamine liberated after 60 minutes, 37° C.
In short: as §2

Fusobacterium nucleatum = settings: β-naphthylamine liberated after 60 minutes, 37° C.
In short: as §2

S. sanguis = settings: β-naphthylamine liberated after 60 minutes, 37° C.
In short: as §2

S. mutans = settings: strain ATCC 25175; β-naphthylamine liberated after 60 minutes, 37° C.
In short: as §2

L. fermentum = assay: Aminopeptidase activity on β-naphthylamide substrates; settings: strain ATCC 11581; β-naphthylamine liberated after 60 minutes, 37° C.
In short: as §2

A. equuli = assay: as above; settings: strain ATCC 19392; β-naphthylamine liberated after 60 minutes, 37° C.
In short: as §2

Haemophilus aphrophilus = assay: as above; settings: β-naphthylamine liberated after 60 minutes, 37° C.
In short: as §2

F. periodonticum = assay: as above; settings: strain EK1-15; β-naphthylamine liberated after 60 minutes, 37° C.
In short: as §2

S. salivarius = assay: as above; settings: β-naphthylamine liberated after 60 minutes, 37° C.
In short: as §2

A. suis = assay: as above; settings: strain ATCC 15557; β-naphthylamine liberated after 60 minutes, 37° C.
In short: as §2

Lactobacillus casei = assay: as above; settings: β-naphthylamine liberated after 60 minutes, 37° C.
In short: as §2

For CSCCC(N)C(=O)Nc1ccc2ccccc2c1 (racemic), which Aminopeptidase activity (B. loescheii; strain ATCC 15930) is on record?
The Aminopeptidase activity was 0 nmol.

And the Aminopeptidase activity (B. loescheii; strain VPI4196)?
The Aminopeptidase activity was 0 nmol.

And the Aminopeptidase activity (B. mel. ss. intermedius; strain ATCC 25261)?
Its Aminopeptidase activity is 0 nmol.

And the Aminopeptidase activity (B. mel. ss. intermedius; strain ATCC 33563)?
The Aminopeptidase activity was 0 nmol.

What about the Aminopeptidase activity (B. mel. ss. intermedius; strain NCTC 9336) of the same molecule?
The Aminopeptidase activity was 0 nmol.

And the Aminopeptidase activity (C. ochracea)?
The Aminopeptidase activity was 118 nmol.

And the Aminopeptidase activity (B. levii; strain 18-1-5)?
Its Aminopeptidase activity is 0 nmol.

What about the Aminopeptidase activity (B. levii; strain 18-1-8) of the same molecule?
Its Aminopeptidase activity is 1 nmol.

What about the Aminopeptidase activity (Bacteroides gingivalis; strain 9-14K-1) of the same molecule?
Its Aminopeptidase activity is 0 nmol.

And the Aminopeptidase activity (Bacteroides gingivalis; strain 11-1-2)?
Its Aminopeptidase activity is 0 nmol.

What about the Aminopeptidase activity (Bacteroides gingivalis; strain 381) of the same molecule?
The Aminopeptidase activity was 0 nmol.

What about the Aminopeptidase activity (Bacteroides gingivalis; strain 1021) of the same molecule?
Its Aminopeptidase activity is 0 nmol.

What about the Aminopeptidase activity (Bacteroides gingivalis; strain ATCC 33277) of the same molecule?
Its Aminopeptidase activity is 0 nmol.

What about the Aminopeptidase activity (Bacteroides gingivalis; strain FAYE 19m-1) of the same molecule?
Its Aminopeptidase activity is 0 nmol.

And the Aminopeptidase activity [1]?
Its Aminopeptidase activity is 122 nmol.

And the Aminopeptidase activity (B. asaccharolyticus; strain 536B)?
Its Aminopeptidase activity is 0 nmol.

And the Aminopeptidase activity (B. asaccharolyticus; strain ATCC 18569)?
Its Aminopeptidase activity is 0 nmol.

And the Aminopeptidase activity (B. asaccharolyticus; strain ATCC 25260)?
Its Aminopeptidase activity is 1 nmol.

What about the Aminopeptidase activity (B. asaccharolyticus; strain ATCC 27067) of the same molecule?
Its Aminopeptidase activity is 2 nmol.

What about the Aminopeptidase activity (B. asaccharolyticus; strain NY446) of the same molecule?
Its Aminopeptidase activity is 0 nmol.

What about the Aminopeptidase activity (V. parvula) of the same molecule?
The Aminopeptidase activity was 0 nmol.

What about the Aminopeptidase activity (Eikenella corrodens) of the same molecule?
Its Aminopeptidase activity is 3 nmol.

And the Aminopeptidase activity (Campylobacter sputorum)?
Its Aminopeptidase activity is 0 nmol.

And the Aminopeptidase activity (Actinomyces israeli; strain ATCC 12103)?
The Aminopeptidase activity was 12 nmol.

What about the Aminopeptidase activity (Actinomyces israeli; strain DK2-3) of the same molecule?
The Aminopeptidase activity was 33 nmol.

And the Aminopeptidase activity ([2]; strain 67)?
Its Aminopeptidase activity is 0 nmol.

What about the Aminopeptidase activity ([2]; strain 75) of the same molecule?
Its Aminopeptidase activity is 0 nmol.

And the Aminopeptidase activity ([2]; strain ATCC 29523)?
Its Aminopeptidase activity is 1 nmol.

What about the Aminopeptidase activity ([2]; strain NCTC 9709) of the same molecule?
Its Aminopeptidase activity is 0 nmol.

What about the Aminopeptidase activity ([2]; strain Y4) of the same molecule?
Its Aminopeptidase activity is 0 nmol.

What about the Aminopeptidase activity (Veillonella sp.) of the same molecule?
The Aminopeptidase activity was 0 nmol.

What about the Aminopeptidase activity (A. seminis) of the same molecule?
The Aminopeptidase activity was 0 nmol.

And the Aminopeptidase activity ("Anaerobic vibrio")?
The Aminopeptidase activity was 0 nmol.

What about the Aminopeptidase activity (Streptococcus mitis; strain ATCC 9815) of the same molecule?
Its Aminopeptidase activity is 52 nmol.

What about the Aminopeptidase activity (Streptococcus mitis; strain ATCC 15909) of the same molecule?
Its Aminopeptidase activity is 12 nmol.

And the Aminopeptidase activity (Streptococcus mitis; strain ATCC 15911)?
The Aminopeptidase activity was 13 nmol.

What about the Aminopeptidase activity (Streptococcus mitis; strain ATCC 15912) of the same molecule?
The Aminopeptidase activity was 17 nmol.

What about the Aminopeptidase activity (A. viscosus; strain ATCC 19246) of the same molecule?
Its Aminopeptidase activity is 9 nmol.

And the Aminopeptidase activity (A. viscosus; strain T14V)?
The Aminopeptidase activity was 7 nmol.

And the Aminopeptidase activity (Fusobacterium nucleatum; strain 2)?
Its Aminopeptidase activity is 1 nmol.

What about the Aminopeptidase activity (Fusobacterium nucleatum; strain ATCC 25586) of the same molecule?
The Aminopeptidase activity was 0 nmol.

And the Aminopeptidase activity (Fusobacterium nucleatum; strain D31A-24)?
The Aminopeptidase activity was 0 nmol.

What about the Aminopeptidase activity (S. sanguis; strain ATCC 10556) of the same molecule?
The Aminopeptidase activity was 23 nmol.

And the Aminopeptidase activity (S. sanguis; strain ATCC 10557)?
Its Aminopeptidase activity is 18 nmol.

What about the Aminopeptidase activity (S. mutans) of the same molecule?
Its Aminopeptidase activity is 5 nmol.

What about the Aminopeptidase activity (L. fermentum) of the same molecule?
The Aminopeptidase activity was 6 nmol.

And the Aminopeptidase activity (A. equuli)?
Its Aminopeptidase activity is 0 nmol.

And the Aminopeptidase activity (Haemophilus aphrophilus; strain ATCC 13252)?
Its Aminopeptidase activity is 0 nmol.

What about the Aminopeptidase activity (Haemophilus aphrophilus; strain ATCC 19415) of the same molecule?
The Aminopeptidase activity was 0 nmol.

And the Aminopeptidase activity (Haemophilus aphrophilus; strain NCTC 5908)?
Its Aminopeptidase activity is 0 nmol.

And the Aminopeptidase activity (F. periodonticum)?
Its Aminopeptidase activity is 0 nmol.

And the Aminopeptidase activity (S. salivarius; strain ATCC 9759)?
Its Aminopeptidase activity is 5 nmol.

What about the Aminopeptidase activity (S. salivarius; strain ATCC 25975) of the same molecule?
The Aminopeptidase activity was 1 nmol.

And the Aminopeptidase activity (A. suis)?
The Aminopeptidase activity was 0 nmol.

What about the Aminopeptidase activity (Lactobacillus casei; strain ATCC 7469) of the same molecule?
The Aminopeptidase activity was 1 nmol.

And the Aminopeptidase activity (Lactobacillus casei; strain ATCC 11578)?
The Aminopeptidase activity was 9 nmol.

What about the Aminopeptidase activity (Lactobacillus casei; strain ATCC 11582) of the same molecule?
Its Aminopeptidase activity is 9 nmol.
